Where two headings read alike, the source gives them in different places.
Target: T1, CBG (corticosteroid-binding globulin, transcortin) (Sus scrofa, UniProt Q9GK37)
T1 construct: quantity of cortisol specifically fixed to the glycoproteins adsorbed on the gel; from tissue; host or cells: pig blood plasma (Large White and Meishan, n = 12 each)
T1 sequence (Q9GK37 23-406): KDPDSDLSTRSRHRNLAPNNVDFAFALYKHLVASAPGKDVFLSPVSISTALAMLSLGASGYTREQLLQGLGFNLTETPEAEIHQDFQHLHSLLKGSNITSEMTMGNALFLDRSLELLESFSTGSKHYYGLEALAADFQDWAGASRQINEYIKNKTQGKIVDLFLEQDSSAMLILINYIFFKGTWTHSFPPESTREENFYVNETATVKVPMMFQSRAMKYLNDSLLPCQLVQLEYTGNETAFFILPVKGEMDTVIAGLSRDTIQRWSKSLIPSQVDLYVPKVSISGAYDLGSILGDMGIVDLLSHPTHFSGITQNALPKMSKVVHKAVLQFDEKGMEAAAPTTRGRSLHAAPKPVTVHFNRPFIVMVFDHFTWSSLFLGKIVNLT
Assay: solid phase fixation (radiobinding) test of cortisol binding to plasma CBG, Concavalin A-Sepharose, Scatchard analysis
Set-up: species or system pig
Settings: n = 12, plasma CBG, 4° C., read-out: Kd (affinity of CBG for cortisol)
Experimental: The binding capacity of CBG and its affinity for cortisol were measured at 4° C. by a solid phase fixation test using a Concavalin A-Sepharose column (Pugeat et al., 1984). The association equilibrium constant (Ka) and the capacity of CBG for cortisol were calculated by a Scatchard analysis using “bound” as the quantity of cortisol specifically fixed to the glycoproteins adsorbed on the gel and “free” as the concentration of cortisol in the aqueous phase.
At the protein level, the capacity of binding to cortisol and the affinity constant of CBG were compared between the LW and Meishan pigs by radiobinding studies. No difference in affinity was found between the two breeds of pigs.

Kd (Large White pigs): 0.38 ± 0.05 nM
Kd (Meishan pigs): 0.46 ± 0.05 nM
SMILES: C[C@]12CCC(=O)C=C1CC[C@@H]1[C@@H]2[C@@H](O)C[C@@]2(C)[C@H]1CC[C@]2(O)C(=O)CO [cortisol]

Source: patent US20080115236A1, “CBG gene as a genetic marker of hypercortisolism and associated pathologies” (Institut National de la Recherche Agronomique (INRA), a …, priority 2001, published 2008)
